We go through 8 compounds from article PMC5989272, “Transfer Hydrogenation and Antiproliferative Activity of Tethered Half-Sandwich Organoruthenium Catalysts” (Organometallics, 2018).

Series [1] relates to double-helical calf thymus DNA (ct-DNA). Nature of the series: Binding to calf thymus DNA (FAAS after dialysis). The following applies: ri 0.1 and 0.5, 10 mM NaClO4, 310 K, 24 h.
Experimental: The reaction was terminated after 24 h of incubation, and samples were exhaustively dialyzed against water. The ruthenium content in these samples was determined by flameless atomic absorption spectrometry (FAAS) and the concentration of DNA by absorption spectrophotometry.
Series [2] deals with single-stranded 50-mer oligonucleotide. Nature of the series: Binding to single-stranded 50-mer oligonucleotide (FAAS). To be noted: ri = 0.5, 0.05 M NaClO4, 310 K, 24 h, dark. The method, then: (§1) After 24 h the reaction was stopped, and samples were exhaustively dialyzed against water. The ruthenium contents in these samples were determined by FAAS, and the concentrations of DNA were determined by absorption spectroscopy.

For series [3], the system named is double-stranded 50-mer oligonucleotide. Nature of the series: Binding to double-stranded 50-mer oligonucleotide (FAAS). To be noted: ri = 0.5, 0.05 M NaClO4, 310 K, 24 h, dark. The method, then:
as §1

Details of series [4]: method as in PMID 16604356. To be noted: cited from earlier work.
Series [5] concerns A2780 human ovarian cancer cells. Nature of the series: Antiproliferative activity (SRB assay), A2780. The series is classed as cell-based. To be noted: 24 h drug exposure, 72 h recovery in drug-free medium. The method, then: (§2) A2780 and A2780Cis human ovarian, A549 human lung, HEPG 2 human hepatocellular, MCF 7 human breast cancer, and MRC 5 human normal fibroblast cell lines were grown in Roswell Park Memorial Institute medium (RPMI-1640) supplemented with 10% of fetal calf serum, 1% of 2 mM glutamine, and 1% penicillin/streptomycin. All cells were grown as adherent monolayers at 310 K with 5% CO2 humidified, and all cells were passaged at ca. 80% confluency.
(§3) The antiproliferative activity and cytotoxicity of complexes 1–4 were determined in five different cancer cell lines and one human normal cell line. In general, about 5000 cells per well were seeded in 96-well plates. The plates were preincubated with drug-free medium at 310 K for 48 h before adding the tested compounds (various concentrations). Stock solutions of complexes 1–4 were prepared in DMSO/cell culture medium, and exact complex concentrations were determined by ICP-OES. […] A further cell recovery for 72 h was allowed in drug-free medium at 310 K. The sulforhodamine B (SRB) assay was used to determine cell viability. IC50 values, as the concentration that causes 50% cell death, were determined as duplicates of triplicates in two independent sets of experiments, and their standard deviations were calculated.
(The SRB assay estimates cell density from bound dye.)

For series [6], the system named is A2780Cis cisplatin-resistant ovarian cancer cells. Nature of the series: Antiproliferative activity (SRB assay), A2780Cis. The series is classed as cell-based, human. The following applies: for IC50: 24 h drug exposure, 72 h recovery in drug-free medium; for RI (resistance index): ratio of IC50 A2780Cis to parental A2780. The method, then:
as §2, §3

Series [7] relates to A549 human lung cancer cells. Nature of the series: Antiproliferative activity (SRB assay), A549. The series is classed as cell-based. To be noted: 24 h drug exposure, 72 h recovery in drug-free medium. The method, then: as §2, §3
Series [8] deals with HEPG2 human hepatocellular cancer cells. Nature of the series: Antiproliferative activity (SRB assay), HEPG2. The series is classed as cell-based. To be noted: 24 h drug exposure, 72 h recovery in drug-free medium. Here is the method: as §2, §3
Series [9] relates to MCF7 human breast cancer cells. Nature of the series: Antiproliferative activity (SRB assay), MCF7. Type of series: cell-based. To be noted: 24 h drug exposure, 72 h recovery in drug-free medium; read-out: IC50 MCF 7. Here is the method:
as §2, §3

In series [10] the test system is MRC5 normal human lung fibroblast cells. Nature of the series: Cytotoxicity (SRB assay), MRC5 normal fibroblasts. Type of series: cell-based. To be noted: 24 h drug exposure, 72 h recovery, read-out: IC50 MRC 5. The method, then:
as §2, §3

The conditions of series [11]: NAD+ to NADH, formate hydride donor; Ru/NAD+/formate 1/4/25, DMSO-d6/D2O, pH* 7.2, 310 K. The method, then: (§4) Catalytic transfer hydrogenation reactions of complexes 1–4 and sodium formate as hydride donor for conversion of nicotinamide adenine dinucleotide (NAD^+) to NADH were studied in aqueous media by UV–visible spectroscopy by following the absorbance at 340 nm for NADH and by ^1H NMR spectroscopy (20% DMSO-d6 in D2O) by monitoring peaks corresponding to 1,4-NADH.
Complexes 1–4 were dissolved in DMSO-d6/D2O (3/2 v/v; 1.4 mM) in a glass vial. Aliquots (200 μL) of solutions of sodium formate (35 mM) and NAD^+ (5.6 mM) in D2O were added, and the pH* was adjusted to 7.2 ± 0.1, for a final volume of 0.64 mL (Ru complex 0.44 mM, NAD^+ 1.75 mM, NaHCO2 10.94 mM; molar ratio 1/4/25). The solution was transferred to a 5 mm NMR tube, and a ^1H NMR spectrum was recorded at 310 K every 162 s until the completion of the reaction. Molar ratios of NAD^+ and NADH were determined by integrating the peaks corresponding to resonances for NAD^+ (9.33 ppm) and 1,4-NADH (6.96 ppm). The turnover number (TON) for the reaction was calculated [drawing 1] where In is the integral of the signal at n ppm and [NAD^+] is the concentration of NAD^+ at the start of the reaction.

The conditions of series [12]: NAD+ to NADH, formate hydride donor; Ru/NAD+/formate 1/6/1200, pH 7.2, 310 K, 340 nm. Here is the method:
as §4
Complexes 1–4 were dissolved in DMSO/H2O (1/9 v/v) (84 μM) in a glass vial. Solutions of sodium formate (102 mM) and NAD^+ in H2O (510 μM) were also prepared and then mixed at 310 K. In a typical experiment, an aliquot of 330 μL from each solution was placed in a 1 mL cuvette and the pH adjusted to 7.2 before the sample was introduced into the UV–vis instrument, giving a total volume of 1 mL (final concentrations were Ru complex 28 μM, NAD^+ 170 μM, NaHCO2 34 mM, molar ratio 1/6/1200). UV spectra were recorded every 5 min until completion of the reaction. The spectrum was monitored for an increase in the band at 340 nm, which corresponds to the absorption of NADH.

For series [13], the system named is A2780 human ovarian cancer cells. Nature of the series: Cell viability on coincubation with sodium formate (SRB). To be noted: 0.5, 1 and 2 mM sodium formate.
Experimental: Experiments included three sets of controls: the first, negative controls, consisted of untreated cells (only vehicle exposure), a second set was exposed to three concentrations of sodium formate (0.5, 1, and 2 mM), and a third set was exposed to cisplatin as positive controls. […] Following 72 h of recovery time in drug-free medium, cell survival was evaluated using the Sulforhodamine B colorimetric assay.
Cell viability assays of complexes 1–4 were carried out with A2780 ovarian cancer cells with sodium formate. […] Drug stock solutions (ca. 100 μM) were prepared as described for in vitro growth inhibition assays and then further diluted with media until working concentrations were achieved. Separately, a stock solution of sodium formate was prepared in saline. The complex and formate solutions were added to each well independently within 5 min of each other. All other experimental conditions were kept unchanged (drug exposure, cell recovery time, and end point assay used). The standard deviations were calculated.
For series [14] the test system is unchanged. Nature of the series: ROS/superoxide induction (flow cytometry). The series is classed as cell-based. The following applies: IC50 concentration, 24 h; pyocyanin 30 min. Here is the method:
The total level of oxidative stress, including H2O2, peroxy and hydroxyl radical, peroxynitrite, NO, and superoxide production, was monitored using the green channel FL1 and orange channel FL2, respectively.
Positive controls were obtained by exposure of cells to pyocyanin for 30 min. Data were processed using Flowjo software. At all times, samples were kept under dark conditions to avoid light-induced ROS production.
Background: In flow cytometry, cells or beads pass a laser one at a time.

Series [15] has the same test system. To be noted: 24 h exposure at equipotent IC50 concentration, no recovery. Here is the method: (§5) ICP-MS and ICP-OES analyses were carried out on Agilent Technologies 7500 series and PerkinElmer Optima 5300 DV series instruments, respectively. The double-deionized (DDW) water used for both analyses was from a Millipore Milli-Q water purification system and a USF Elga UHQ water deionizer. The Ruthenium Specpure plasma standard (ruthenium chloride, 1004 ± 5 μg/mL in 10% v/v hydrochloric acid) was diluted with 3.6% v/v HNO3, and calibrants were prepared freshly at concentrations of 0.1–500 ppb for ICP-MS and 50–700 ppb for ICP-OES. In particular, calibration standards for ICP-OES analysis were adjusted with standard sodium chloride (TraceSELECT) solution to match the sample salinity. The instrument was set to detect ^101Ru with typical detection using no-gas mode for ICP-MS analysis.
(§6) Cellular Ru accumulations for complexes 2 and 4 were determined on A2780 ovarian and A2780 cisplatin-resistant ovarian cancer cells. Approximately 2 × 10^6 cells were seeded in a six-well plate and preincubated in drug-free medium at 310 K for 24 h, and stock solutions of both complexes were prepared in a mixture of DMSO/cell culture medium and their accurate Ru concentrations were determined by ICP-OES. […] After this time, cells were treated with trypsin and counted and cell pellets were collected. […] Statistical significances of variations were determined using Welch’s t-tests.

Another series concerns A2780Cis cells. To be noted: 24 h exposure at equipotent IC50 concentration, no recovery. Here is the method:
as §5, §6

Take `Cc1ccc(C(C)C)cc1.Cc1ccc(S(=O)(=O)[N](CCN)[Ru][Cl])cc1` [JS2, [(η^6-p-cym)Ru(TsEn)Cl]]: the “ruthenium bound to ct-DNA” value in series [1] is recorded as “No detectable amount of ruthenium”. The “Ru bound to single-stranded oligonucleotide” value in series [2] is given as “No Ru associated”. Further, the “Ru bound to double-stranded oligonucleotide” value in series [3] is listed as “No Ru associated”. Besides, the “TOF for TH reduction of NAD+” value in series [4] is on record as 2.88 h^–1.
For “[Ru(η^6-Ph(CH2)3-ethylenediamine-N-Tf)Cl] [Complex 3]”, the IC50 was more than 50 µM in series [5]; more than 50 µM in series [6]; 31 ± 2 µM in [7]; more than 50 µM in [8]; 24 ± 3 µM in [9]; 28 ± 3 µM in series [10]. For the same compound, the “TOF (NMR)” value in [11] was 8.9 ± 0.3 h^–1. The “TOF (UV–vis)” value in [12] turned out to be 8.69 ± 0.07 h^–1.
As to `O=C[O-].[Na+]` [sodium formate], the “toxicity of formate alone” value in series [13] is “not toxic”.
As to `[NH2][Pt]([NH2])([Cl])[Cl]` [CDDP, cisplatin, reference compound], the IC50 in [5] is 1.2 ± 0.02 µM; in series [6], 13.4 ± 0.3 µM; in series [7], 3.1 ± 0.1 µM; in series [8], 5.7 ± 0.9 µM; in [9], 7.3 ± 0.2 µM; in series [10], 12.8 ± 0.3 µM. For the same compound, the “selectivity index between MRC5 normal cells and A2780Cis cancer cells” value in series [6] (MRC5 vs A2780Cis) was determined as 0.95. Also, in [6], the “RI (resistance index)” value was found to be 11.
Take `Cn1c2cccc(=O)c-2nc2ccccc21` [Pyocyanin, pyocyanin]: in series [14], the “Cell Populations FL-1+/FL-2+” value amounted to 96.1 ± 0.8%, the “Cell Populations FL-1+/FL-2- (total oxidative stress)” value turned out to be 1.5 ± 0.6%, the “Cell Populations FL-1-/FL-2+ (superoxide)” value worked out at 2.5 ± 0.9% and the “Cell Populations FL-1-/FL-2-” value is 0.45 ± 0.08%.
For the compound “[Ru(η^6-Ph(CH2)3-ethylenediamine-N-Ms)Cl] [Complex 1]”, the IC50 is 23 ± 1 µM in series [5]; more than 50 µM in series [6]; 33 ± 1 µM in [7]; 27.8 ± 0.1 µM in series [8]; 28.9 ± 0.9 µM in series [9]; 31 ± 1 µM in series [10]. Further, the “RI (resistance index)” value in series [6] is listed as more than 2. The “TOF (NMR)” value in [11] is reported as 3.79 ± 0.05 h^–1. Moreover, in series [12], the “TOF (UV–vis)” value is given as 5.8 ± 0.2 h^–1.
Consider `F[P-](F)(F)(F)(F)F.NCCN.[Cl][Ru+].c1ccc(-c2ccccc2)cc1` [RM175, [(η^6-biph)Ru(en)Cl]PF6], for which, in series [4], the “TOF for TH reduction of NAD+” value is reported as 0.18 h^–1.
In the case of “[Ru(η^6-Ph(CH2)3-ethylenediamine-N-Nb)Cl] [Complex 4]”, the IC50 in series [5] is 16 ± 0.3 µM; in series [6] it was more than 50 µM; in series [7], 30 ± 1 µM; in series [8] it was 23 ± 4 µM; in [9] it was 9.9 ± 0.5 µM; in [10], 26 ± 1 µM. Moreover, the “RI (resistance index)” value in series [6] is on record as more than 3. Besides, the “TOF (NMR)” value in series [11] was 8.5 ± 0.2 h^–1. Moreover, the “TOF (UV–vis)” value in [12] came out at 9.9 ± 0.2 h^–1. The “cellular Ru content” value was 150 ± 38 ng per million cells in series [15] and 241 ± 10 ng per million cells in the series with A2780Cis cells.

As usually defined, the IC50 is the point on the concentration scale where inhibition reaches its midpoint.
